Results on 17 compounds are retold here after article PMC4866688, “Trypanosoma brucei DHFR-TS Revisited: Characterisation of a Bifunctional and Highly Unstable Recombinant Dihydrofolate Reductase-Thymidylate Synthase” (PLoS Neglected Tropical Diseases, 2016).

Where “and” joins values, the source holds several entries; their conditions need not be identical. Equal values may be shown once. Read-outs that look alike come from different tables or passages of the source.

For experiment [1], the target named is T1, T. brucei TS (Tsf-TbDHFR-TS) (Trypanosoma brucei brucei, UniProt Q27783).
T1 construct: The open reading frame of DHFR-TS was amplified by PCR from T. brucei gDNA using specific oligonucleotides; made in house; host or cells: thyA- E. coli derived from BL21 Star (DE3); unpurified clarified lysate
As to the kind of experiment: Stabilisation of recombinant T. brucei TS activity in desalted, diluted lysate. It is filed as biochemical. The protocol:
(§1) The initial characterisation of TS was also carried out using a spectrophotometric assay. […] Enzymatic reactions were initiated by the addition of CH2THF (200 μM, Shircks Laboratories) and initial rates of CH2THF oxidation to DHF monitored by the increase in absorbance at 340 nm (ε = 6,200 M^-1 cm^-1). […] Residual 5-[^3H]-dUMP was removed by the addition of 200 μl of 10% (w/v) activated charcoal (Sigma). Aliquots (100 μl) of the supernatants were added to 2 ml of scintillation fluid (Pico-Fluor 40™, Packard Bioscience) and radioactivity determined using a Beckmann LS 6500 Scintillation Counter. To determine TS activity in clarified T. brucei lysates the incubation time was increased to 30 min and the assay volume was increased to ~200 μl. […] For stability experiments all lysates were desalted using 0.5 ml Zeba Spin Desalting Columns (7K MWCO). Protein concentrations were determined using the BioRad protein assay based on the method of Bradford. Inhibitors (8-point doubling dilutions) were assayed using the radiometric method in the presence of 100 μM CH2THF, 200 μM dUMP and 200 nM Tsf-TbDHFR-TS.
Target sequence in this assay (Q27783 whole entry): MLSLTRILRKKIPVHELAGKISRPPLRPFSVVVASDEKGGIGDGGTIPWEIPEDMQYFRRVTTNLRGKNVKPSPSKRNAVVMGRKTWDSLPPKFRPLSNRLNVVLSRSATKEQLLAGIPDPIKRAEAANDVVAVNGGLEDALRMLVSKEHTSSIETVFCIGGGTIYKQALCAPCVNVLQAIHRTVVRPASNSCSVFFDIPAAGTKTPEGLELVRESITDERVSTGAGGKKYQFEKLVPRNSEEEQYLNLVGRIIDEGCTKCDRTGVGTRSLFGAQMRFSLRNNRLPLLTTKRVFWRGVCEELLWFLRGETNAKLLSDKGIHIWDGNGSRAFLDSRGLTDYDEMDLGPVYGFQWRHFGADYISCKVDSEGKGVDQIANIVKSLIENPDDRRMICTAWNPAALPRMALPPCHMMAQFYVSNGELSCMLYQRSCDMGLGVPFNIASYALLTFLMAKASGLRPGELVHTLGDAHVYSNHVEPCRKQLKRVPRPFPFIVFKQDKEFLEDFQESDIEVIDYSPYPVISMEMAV
Target sequence in this assay (P0A6P1 whole entry partner): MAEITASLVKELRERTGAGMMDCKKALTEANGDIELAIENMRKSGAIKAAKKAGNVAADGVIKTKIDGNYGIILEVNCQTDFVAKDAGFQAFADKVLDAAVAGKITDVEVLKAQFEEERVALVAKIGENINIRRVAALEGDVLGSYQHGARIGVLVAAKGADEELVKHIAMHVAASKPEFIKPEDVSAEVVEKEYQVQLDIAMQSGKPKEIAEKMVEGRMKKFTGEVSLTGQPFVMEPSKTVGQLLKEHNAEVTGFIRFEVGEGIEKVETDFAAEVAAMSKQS

In experiment [2] the target is T2, T. brucei DHFR (Tsf-TbDHFR-TS) (Trypanosoma brucei brucei, UniProt Q27783). As to the kind of experiment: Kinetic analysis of DHFR activity (substrates). The conditions noted are these: for Activity as substrate for T. brucei DHFR: <17,000-fold (folate) and <2,300-fold (pterins) compared to DHF as substrate. Also on record: The open reading frame of DHFR-TS was amplified by PCR from T. brucei gDNA using specific oligonucleotides; made in house; host or cells: thyA- E. coli derived from BL21 Star (DE3). The experiment is classed as biochemical.
T2 sequence (Q27783 whole entry): as the sequence (Q27783 whole entry) above

Experiment [3] concerns the target T2, T. brucei DHFR (Tsf-TbDHFR-TS). The experiment can be described thus: Inhibition of DHFR activity of recombinant Tsf-TbDHFR-TS (spectrophotometric, 340 nm). The conditions noted are these: for Modality of inhibition of DHFR: with respect to DHF.
Procedure: DHFR activity was determined spectrophotometrically at 340 nm [18]. DHFR (5 nM) was pre-incubated with 100 μM NADPH (Medford) in assay buffer (50 mM HEPES, pH 7.4, containing 100 mM KCl) for 1 min at 25°C (1 ml final assay volume), before the addition of 100 μM DHF (Sigma Aldrich). […] The Km^app values for DHFR substrates were determined by varying the concentration of one substrate in the presence of a fixed saturating concentration of the other. IC50 values were determined using 8-point doubling dilutions of inhibitor under the above standard assay conditions.
Results were analysed by non-linear regression using GraFit v 5.0.13 (Erithacus Software). Km^app values were determined using the Michaelis-Menten equation. IC50 values were determined using eq 1 and Ki values calculated using the Cheng-Prusoff eq 2 [23].
The subject of experiment [4] is T. brucei bloodstream-form 'single marker' S427. As to the kind of experiment: Growth inhibition of wild type T. brucei, 72 h, resazurin-based assay. The experiment is classed as cell-based. The conditions noted are these: Trypanosoma brucei. The method, then:
Wild type (WT) T. brucei bloodstream-form ‘single marker’ S427 were cultured in HMI9T medium supplemented with 2.5 μg ml^-1 G418 to maintain expression of T7 RNA polymerase and the tetracycline repressor protein [27]. HMI9T medium (standard media for T. brucei cell culture) contains high concentrations of folate (~9 μM) and thymidine (~160 μM) principally from IMDM and 10% Serum Plus components. A medium based on HMI9T, only lacking Serum Plus, folate and thymidine was prepared in-house, named trypanosome base media (TBM; the residual folate is provided by the serum component). A comparison of these media is described in S2 Table. WT T. brucei cells grow normally in TBM and the rate of growth is similar to HMI9T in TBM with no supplementation, supplementation with 9 μM folate, 160 μM thymidine or supplementation with both folate and thymidine (7–8 h doubling time).
EC50 of antifolates against T. brucei were determined in 96-well microtitre plates. Serial doubling dilutions of antifolate drugs (10–50 mM stocks prepared in DMSO) were prepared in 100 μl of the appropriate medium and trypanosomes (resuspended in the same medium) added in 100 μl to give a final concentration of 2.5 × 10^3 cells ml^-1. All wells, including controls, contained a final volume of 0.5% DMSO. Cultures were incubated for 72 h at 37°C / 5% CO2 before cell density was determined using a resazurin-based assay. EC50 values were calculated using GraFit v 5.0.13 (Erithacus Software) with a 3-parameter non-linear regression from triplicate readings. Antifolates were tested against parasites cultured in TBM; this allowed for the addition of thymidine (160 μM) and folate (9 μM) respectively.

The target of experiment [5] is T1, T. brucei TS (Tsf-TbDHFR-TS). As to the kind of experiment: Inhibition of TS activity of Tsf-TbDHFR-TS in clarified thyA- E. coli lysate. The conditions noted are these: for TS Ki, T. brucei / Ki: 100 μM CH2THF, 200 μM dUMP, 200 nM Tsf-TbDHFR-TS, Inactive * = no inhibition at 25 μM, ** = no inhibition at 100 μM; for Ki: TS Ki, T. brucei. It is filed as biochemical. The method, then: as §1
Target sequence in this assay (Q27783 whole entry): as above
Target sequence in this assay (P0A6P1 whole entry, further chain): as the sequence (P0A6P1 whole entry partner) above

Another experiment concerns the target Human DHFR. The conditions noted are these: cited from earlier work.
The target in the next experiment is Human TS. The conditions noted are these: cited from earlier work.
Setting [6] is: TBM (folate and thymidine deficient), read-out: EC50, No addition.
[7] abbreviates: TBM + folate (9 μM), read-out: EC50, + Folate.
Where [8] appears, read: TBM + thymidine (160 μM) + folate (9 μM), read-out: EC50, + Thymidine + Folate.
Setting [9] is: TBM + thymidine (160 μM), read-out: EC50, + Thymidine.
Setting [10] is: DHFR Ki, T. brucei, recombinant TbDHFR-TS, from IC50 (Cheng-Prusoff) or Morrison equation for tight binders, Inactive ** = no inhibition at 100 μM.
[11] abbreviates: DHFR Ki (competitive inhibition, global fit, Fig 5), varying DHF, fixed amounts of inhibitor, non-linear regression.

In the case of `O=c1ccn([C@H]2C[C@H](O)[C@@H](COP(=O)(O)O)O2)c(=O)[nH]1` [dUMP, deoxyuridine monophosphate], in experiment [1] (200 μM dUMP vs no dUMP), the “Increase in stability of TS activity” value is on record as 700 fold. Also, the EC50 in experiment [1] (absence of CH2THF, diluted lysate incubated 10 min, read-out: Half maximal concentration required to stabilise TS activity) was determined as 12.6 ± 2.5 µM.
`Nc1nc(=O)c2nc(CNc3ccc(C(=O)N[C@@H](CCC(=O)O)C(=O)O)cc3)cnc2[nH]1` [Folic acid]: the “Activity as substrate for T. brucei DHFR” value in experiment [2] is “inactive”.
On to `CCc1nc(N)nc(N)c1-c1ccc(Cl)cc1` [Pyrimethamine, pyrimethamine], for which the “Modality of inhibition of DHFR” value in experiment [3] is reported as “competitive inhibitors”. The EC50 worked out at 2.26 ± 0.32 µM in experiment [4] (setting [6]), 6.32 ± 0.71 µM in experiment [4] (setting [7]), 6.87 ± 0.33 µM in experiment [4] (setting [8]) and 2.01 ± 0.34 µM in experiment [4] (setting [9]). In addition, in experiment [5], the “TS Ki, T. brucei” value is listed as “Inactive ^**”.
As for `CN(Cc1cnc2nc(N)nc(N)c2n1)c1ccc(C(=O)N[C@@H](CCC(=O)O)C(=O)O)cc1` [Methotrexate, methotrexate], the “Modality of inhibition of DHFR” value in experiment [3] is reported as “tight-binding inhibitors”. Further, the EC50 in experiment [4] (setting [6]) was determined as 0.012 ± 0.001 µM; in experiment [4] (setting [7]), 1.31 ± 0.13 µM; in experiment [4] (setting [8]), 8.16 ± 2.78 µM; in experiment [4] (setting [9]), 0.12 ± 0.03 µM.
Usually Ki stands for a measure of affinity in units of concentration, obtained from inhibition or displacement. With `Nc1nc2[nH]cc(CCc3ccc(C(=O)N[C@@H](CCC(=O)O)C(=O)O)cc3)c2c(=O)[nH]1` [Pemetrexed, pemetrexed], the Ki on Human DHFR (ref Shih et al. [11]) is 0.007 µM; in experiment [3] (setting [10]), 0.29 ± 0.02 µM; in experiment [5] it was 20.5 µM. Further, the EC50 was 0.02 ± 0.001 µM in experiment [4] (setting [6]), 12.9 ± 1.1 µM in experiment [4] (setting [7]), > 250 µM in experiment [4] (setting [8]) and > 250 µM in experiment [4] (setting [9]).
For `C[C@H](O)C(=O)C1=Nc2c(nc(N)[nH]c2=O)NC1` [sepiapterin], in experiment [2], the “Activity as substrate for T. brucei DHFR” value was “inactive”.
For the compound `Cc1nc2ccc(CN(C)c3ccc(C(=O)N[C@@H](CCC(=O)O)C(=O)O)s3)cc2c(=O)[nH]1` [Raltitrexed, raltitrexed], the Ki is 0.093 µM at Human DHFR (ref Jackman et al. [12]); 0.06 µM at Human TS (ref Jackman et al. [12]); 0.0704 ± 0.0072 µM in experiment [3] (setting [11]); 0.0931 ± 0.0079 µM in experiment [3] (setting [10]); 0.215 ± 0.018 µM in experiment [5]. For the same compound, the “Modality of inhibition of DHFR” value in experiment [3] is reported as “competitive inhibitors”. Besides, the EC50 in experiment [4] (setting [6]) was 0.038 ± 0.001 µM; in experiment [4] (setting [7]), 64.8 ± 4.3 µM; in experiment [4] (setting [8]), > 250 µM; in experiment [4] (setting [9]), > 250 µM.
Regarding `COc1cc(Cc2cnc(N)nc2N)cc(OC)c1OC` [Trimethoprim, trimethoprim], the Ki in experiment [3] (setting [11]) was 0.0114 ± 0.0012 µM; in experiment [3] (setting [10]) it was 0.0176 ± 0.0015 µM. The “Modality of inhibition of DHFR” value in experiment [3] is given as “competitive inhibitors”. Further, the EC50 in experiment [4] (setting [6]) is 48.8 ± 3.7 µM; in experiment [4] (setting [7]), 170 ± 28 µM; in experiment [4] (setting [8]), 145 ± 22 µM; in experiment [4] (setting [9]), 59.8 ± 8.6 µM.
Consider `O=c1[nH]c(=O)n([C@H]2C[C@H](O)[C@@H](COP(=O)(O)O)O2)cc1F` [FdUMP, 5-fluorodeoxyuridine monophosphate], for which the Ki was 0.0017 µM at Human TS (ref Dolnick and Cheng [32]); 0.014 µM and 0.0138 µM in experiment [5]. Moreover, in experiment [3] (recombinant TbDHFR-TS, from IC50 (Cheng-Prusoff) or Morrison equation for tight binders, Inactive ** = no inhibition at 100 μM), the “DHFR Ki, T. brucei” value is “Inactive ^**”. Also, in experiment [5] (dUMP-competitive), the “Modality of inhibition of TS” value was “tight-binding inhibition”.
`C[C@H](O)[C@H](O)C1=Nc2c(nc(N)[nH]c2=O)NC1` [dihydrobiopterin]: the “Activity as substrate for T. brucei DHFR” value in experiment [2] is “inactive”.
`Nc1nc2ncc([C@H](O)[C@H](O)CO)nc2c(=O)[nH]1` [neopterin]: the “Activity as substrate for T. brucei DHFR” value in experiment [2] was “inactive”.
The Km is the concentration of substrate that gives half-maximal velocity. `Nc1nc(=O)c2c([nH]1)NCC(CNc1ccc(C(=O)N[C@@H](CCC(=O)O)C(=O)O)cc1)=N2` [DHF, dihydrofolate]: the Km worked out at 4.1 ± 0.6 µM in experiment [2] (Tsf-TbDHFR-TS, purified, 50 mM HEPES pH 7.4, 100 mM KCl, read-out: DHF Km^app); 4.2 ± 0.5 µM in experiment [2] (Tsf-cleaved TbDHFR-TS, read-out: DHF Km^app); 4.1 ± 0.6 µM in experiment [2] (purified enzyme, read-out: DHFR Km^app (Fig 4 legend)).
Turning to `OCCS` [2-mercaptoethanol], in experiment [5] (reducing agent at higher concentrations, clarified lysate), the EC50 was ~100000 µM.
For `Cc1ccc2nc(N)[nH]c(=O)c2c1Sc1ccncc1` [Nolatrexed, nolatrexed], the “DHFR Ki, Human” value in the experiment with Human DHFR (ref Webber et al. [10]) is given as “Inactive^h”. For the same compound, the Ki was 0.348 ± 0.03 µM in experiment [3] (setting [10]); 0.039 µM and 0.0394 µM in experiment [5]. Besides, the EC50 was determined as 21.8 ± 2 µM in experiment [4] (read-out: EC50, + Folate); 32.7 ± 4.7 µM in experiment [4] (read-out: EC50, + Thymidine); 39.6 ± 7.2 µM in experiment [4] (read-out: EC50, + Thymidine + Folate); 33.8 ± 3.7 µM in experiment [4] (read-out: EC50, No addition).
For the compound `NC(=O)C1=CN([C@@H]2O[C@H](COP(=O)(O)OP(=O)(O)OC[C@H]3O[C@@H](n4cnc5c(N)ncnc54)[C@H](OP(=O)(O)O)[C@@H]3O)[C@@H](O)[C@H]2O)C=CC1` [NADPH], the Km in experiment [2] (Tsf-TbDHFR-TS, purified, read-out: NADPH Km^app) is 1.7 ± 0.2 µM.
For biopterin, in experiment [2], the “Activity as substrate for T. brucei DHFR” value is “inactive”.
Turning to `COc1cc(NCc2ccc3nc(N)nc(N)c3c2C)cc(OC)c1OC` [Trimetrexate, trimetrexate], the Ki in experiment [3] (setting [10]) is 0.0006 µM and 0.000597 µM. Also, the “Modality of inhibition of DHFR” value in experiment [3] was “tight-binding inhibitors”. Moreover, the EC50 in experiment [4] (setting [6]) is 0.32 ± 0.02 µM; in experiment [4] (setting [7]) it was 1.23 ± 0.06 µM; in experiment [4] (setting [8]), 4.09 ± 0.35 µM; in experiment [4] (setting [9]), 2.82 ± 0.36 µM. Moreover, the “TS Ki, T. brucei” value in experiment [5] is “Inactive ^*”.
